Our source for the IC50 values is patent US20070191393A1, “Macrocyclic anilinopyrimidines with substituted sulphoximine as selective inhibitors of cell cycle kinases” (priority 2006, published 2007).

One assay deals with T1, KDR (Homo sapiens, UniProt P35968).
T1 construct: made in house; host or cells: SF9 insect cells
As to the kind of experiment: KDR kinase assay. Format: biochemical. The following applies: 1 μM ATP, 22° C., 20 min. On the procedure: Recombinant GST-KDR protein was expressed in SF9 insect cells and then purified. The kinase substrate used was the biotinylated peptide biotin-polyGluAlaTyr from Cisbio International.
GST-KDR [test volume 15 μl] was incubated in the presence of various concentrations of test substances (0 μM, and 10 measurement points within the range 0.001-20 μM in duplicate) in assay buffer [50 mM HEPES pH 7.0, 25 mM MgCl2, 5 mM MgCl2, 0.5 mM Na ortho-vanadate, 1 mM dithiothreitol, 10% glycerol, 1 μM ATP, 23.5 mg/L substrate peptide biotin-polyGluAlaTyr, 1% dimethyl sulphoxide, 1× protease inhibitor mix (from Roche)] at 22° C. for 20 min. The reaction was stopped by adding 5 μl of an EDTA/detection solution [50 mM HEPES pH 7.0, 250 mM EDTA, 0.5% BSA, 22 mg/L streptavidin-XL (from CisBio), 1 mg/L PT66-Eu (from PerkinElmer)]. The fluorescence emission at 620 nm and 665 nm after excitation with light of the wavelength 350 nm was measured in a Rubystar HTRF instrument from BMG Labsystems 60 minutes after addition of the EDTA/detection solution.
(§1) The measured data (ratio of emission 665 divided by emission 620 multiplied by 10 000) were normalized to 0% inhibition (enzyme reaction without inhibitor) and 100% inhibition (all assay components apart from enzyme). The IC50 values were determined by means of a 4-parameter fit using the company's own software.

For a further assay, the target named is T2, Tie-2 (Homo sapiens, UniProt Q02763).
T2 construct: made in house; host or cells: Hi5 insect cells
In words: Tie-2 kinase assay. It counts as biochemical. To be noted: 10 μM ATP, 20 min. Here is the method: Recombinant Tie-2 protein was expressed in Hi5 insect cells and then purified. The kinase substrate used was the biotinylated peptide having the amino acid sequence biotin-EPKDDAYPLYSDFG, which was purchased from Biosynthan. Tie-2 [concentration in the mixture 5 ng/μl] was preincubated in the presence of 100 μM ATP in assay buffer [50 mM HEPES pH 7.0, 0.5 mM MgCl2, 1.0 mM dithiothreitol, 0.01% NP40, 1 tablet/2.5 ml complete protease inhibitor (from Roche)] at 22° C. for 20 min. The enzyme reaction [0.5 ng/μl Tie-2 in the test mixture, test volume 5 μl] then took place in the presence of various concentrations of test substances (0 μM, and 10 measurement points within the range 0.001-20 μM in duplicate) in assay buffer with 10 μM ATP, 1.0 μM substrate peptide biotin-EPKDDAYPLYSDFG, 1.0% dimethyl sulphoxide for 20 min. The reaction was stopped by adding 5 μl of an EDTA/detection solution [50 mM HEPES pH 7.5, 89 mM EDTA, 0.28% BSA, 0.2 μM streptavidin-XLent (from CisBio), 2 nM PT66-Eu (from PerkinElmer)]. The fluorescence emission at 620 nm and 665 nm after excitation with light of the wavelength 350 nm was measured in a Rubystar HTRF instrument from BMG Labsystems.
as §1

T2 sequence (Q02763 23-1124, species assumed): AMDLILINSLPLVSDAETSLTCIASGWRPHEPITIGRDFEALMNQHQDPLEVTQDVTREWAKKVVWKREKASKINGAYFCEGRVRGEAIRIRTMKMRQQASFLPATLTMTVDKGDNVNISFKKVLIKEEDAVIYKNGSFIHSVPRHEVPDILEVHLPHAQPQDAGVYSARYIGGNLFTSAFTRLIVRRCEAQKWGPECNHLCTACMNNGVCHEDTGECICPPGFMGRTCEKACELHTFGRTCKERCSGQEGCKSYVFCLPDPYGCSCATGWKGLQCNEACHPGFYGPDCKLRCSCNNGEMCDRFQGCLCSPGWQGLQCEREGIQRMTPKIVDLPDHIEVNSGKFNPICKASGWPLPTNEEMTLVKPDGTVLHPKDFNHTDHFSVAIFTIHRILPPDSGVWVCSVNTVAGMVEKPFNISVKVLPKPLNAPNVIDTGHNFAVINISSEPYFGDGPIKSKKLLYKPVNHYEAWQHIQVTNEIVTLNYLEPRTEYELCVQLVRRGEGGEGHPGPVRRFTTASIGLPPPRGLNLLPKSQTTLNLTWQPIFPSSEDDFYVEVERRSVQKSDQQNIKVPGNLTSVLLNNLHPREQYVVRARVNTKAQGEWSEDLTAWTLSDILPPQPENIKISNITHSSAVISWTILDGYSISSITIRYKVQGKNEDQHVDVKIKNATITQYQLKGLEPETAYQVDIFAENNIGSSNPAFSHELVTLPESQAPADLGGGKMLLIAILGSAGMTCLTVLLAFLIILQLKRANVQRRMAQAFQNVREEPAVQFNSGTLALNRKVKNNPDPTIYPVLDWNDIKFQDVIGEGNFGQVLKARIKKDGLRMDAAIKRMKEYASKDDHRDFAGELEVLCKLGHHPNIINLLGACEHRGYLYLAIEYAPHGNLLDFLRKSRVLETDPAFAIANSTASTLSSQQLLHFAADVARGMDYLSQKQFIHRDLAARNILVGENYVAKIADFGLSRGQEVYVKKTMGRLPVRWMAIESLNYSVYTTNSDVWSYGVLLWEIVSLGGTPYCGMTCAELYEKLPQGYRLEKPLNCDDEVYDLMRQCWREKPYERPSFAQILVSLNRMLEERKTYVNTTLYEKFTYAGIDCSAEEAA
T1 sequence (P35968 20-1356, species assumed): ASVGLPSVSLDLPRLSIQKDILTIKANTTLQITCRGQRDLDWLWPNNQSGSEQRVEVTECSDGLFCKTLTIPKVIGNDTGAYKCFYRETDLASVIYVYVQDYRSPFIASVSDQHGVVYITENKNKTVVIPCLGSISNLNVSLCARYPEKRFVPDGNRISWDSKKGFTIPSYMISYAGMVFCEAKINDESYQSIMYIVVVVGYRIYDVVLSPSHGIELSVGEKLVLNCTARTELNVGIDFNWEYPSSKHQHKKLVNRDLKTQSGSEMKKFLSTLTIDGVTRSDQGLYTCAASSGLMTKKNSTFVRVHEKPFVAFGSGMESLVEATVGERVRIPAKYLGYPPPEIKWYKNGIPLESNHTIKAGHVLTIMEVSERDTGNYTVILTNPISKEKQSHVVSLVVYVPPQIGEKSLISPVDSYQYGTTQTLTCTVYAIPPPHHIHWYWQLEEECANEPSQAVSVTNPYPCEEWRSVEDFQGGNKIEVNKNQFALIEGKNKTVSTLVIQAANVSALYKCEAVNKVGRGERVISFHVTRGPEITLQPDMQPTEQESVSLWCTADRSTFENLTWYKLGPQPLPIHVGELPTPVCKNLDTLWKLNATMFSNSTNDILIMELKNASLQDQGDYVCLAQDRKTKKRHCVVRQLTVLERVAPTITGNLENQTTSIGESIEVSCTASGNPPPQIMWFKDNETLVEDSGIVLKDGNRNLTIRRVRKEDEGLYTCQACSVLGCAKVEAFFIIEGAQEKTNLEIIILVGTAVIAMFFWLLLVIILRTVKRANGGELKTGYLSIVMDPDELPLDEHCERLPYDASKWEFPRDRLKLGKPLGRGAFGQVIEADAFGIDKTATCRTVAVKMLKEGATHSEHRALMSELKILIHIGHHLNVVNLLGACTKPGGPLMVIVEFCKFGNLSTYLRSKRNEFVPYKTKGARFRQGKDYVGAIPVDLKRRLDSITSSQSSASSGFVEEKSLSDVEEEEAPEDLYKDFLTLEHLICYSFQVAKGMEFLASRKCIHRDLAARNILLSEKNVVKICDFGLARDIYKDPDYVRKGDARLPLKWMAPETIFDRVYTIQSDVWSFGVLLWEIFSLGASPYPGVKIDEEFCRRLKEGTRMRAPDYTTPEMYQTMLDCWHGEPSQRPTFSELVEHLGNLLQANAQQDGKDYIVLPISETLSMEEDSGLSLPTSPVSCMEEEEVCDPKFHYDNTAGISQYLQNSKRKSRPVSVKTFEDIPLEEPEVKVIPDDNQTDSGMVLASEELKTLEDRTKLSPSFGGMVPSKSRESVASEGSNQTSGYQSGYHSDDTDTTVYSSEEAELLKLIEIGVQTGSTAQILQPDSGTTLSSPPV

Usually IC50 stands for the concentration at which inhibition is half-maximal. A higher IC50 goes with a need for much substance. Take `CCOC(=O)N=S(C)(=O)c1ccc2cc1NCCCCNc1nc(ncc1Br)N2` (single isomer, unassigned) [Example 3]: at KDR, it took 289 nM to reach half-maximal inhibition (IC50).

For the molecule `CCCOC(=O)N=S(C)(=O)c1ccc2cc1OCCCCNc1nc(ncc1Br)N2` (racemic) [Example 8, (RS)—S-[1^5-Bromo-4-oxa-2,9-diaza-1(2,4)-pyrimidina-3(1,3)-benzenacyclononaphan-3^4-yl]-S-methyl-N-(propoxycarbonyl)sulphoximide], the results for the IC50 against KDR and against Tie-2 were 136 nM and 17100 nM, respectively.

`CCNC(=O)N=S(C)(=O)c1ccc2cc1NCCCCNc1nc(ncc1Br)N2` (racemic) [Example 6, (RS)—S-[1^5-Bromo-2,4,9-triaza-1(2,4)-pyrimidina-3(1,3)-benzenacyclononaphan-3^4-yl]-N-(ethylcarbamoyl)-S-methylsulphoximide]: the half-inhibitory concentration (IC50) against KDR is 22 nM; on Tie-2, 1410 nM.

As for `CCOC(=O)N=S(C)(=O)c1ccc2cc1NCCCCNc1nc(ncc1Br)N2` (single isomer, unassigned) [Example 2], the IC50 at KDR was determined as 198 nM.

Consider `C[Si](C)(C)CCS(=O)(=O)N=S(C)(=O)c1ccc2cc1NCCCCNc1nc(ncc1Br)N2` (racemic) [Example 5, (RS)—S-[1^5-Bromo-2,4,9-triaza-1(2,4)-pyrimidina-3(1,3)-benzenacyclononaphan-3^4-yl]-S-methyl-N-[2-(trimethylsilyl)ethylsulphonyl]sulphoximide], for which, on KDR, the IC50 came to 22 nM.

As for `CCOC(=O)N=S(C)(=O)c1ccc2cc1NCCCCNc1nc(ncc1Br)N2` (racemic) [Example 1, (RS)—S-[1^5-Bromo-2,4,9-triaza-1(2,4)-pyrimidina-3(1,3)-benzenacyclononaphan-3^4-yl]-N-(ethoxycarbonyl)-S-methylsulphoximide], the half-inhibitory concentration (IC50) on KDR was determined as 61 nM; against Tie-2 it was 2920 nM.

As for `C[Si](C)(C)CCS(=O)(=O)N=S(C)(=O)c1ccc2cc1OCCCCNc1nc(ncc1Br)N2` (racemic) [Example 9, (RS)—S-[1^5-Bromo-4-oxa-2,9-diaza-1(2,4)-pyrimidina-3(1,3)-benzenacyclononaphan-3^4-yl]-S-methyl-N-[2-(trimethylsilyl)ethylsulphonyl]sulphoximide], the results for the IC50 against KDR and on Tie-2 were 60 nM and above 10000 nM, respectively.

With `CCCS(=O)(=O)N=S(C)(=O)c1ccc2cc1NCCCCNc1nc(ncc1Br)N2` (racemic) [Example 7, (RS)—S-[1^5-Bromo-2,4,9-triaza-1(2,4)-pyrimidina-3(1,3)-benzenacyclononaphan-3^4-yl]-S-methyl-N-(propylsulphonyl)sulphoximide], the IC50 against KDR came out at 7 nM; at Tie-2, 1700 nM.

Regarding `CCOC(=O)N=S(C)(=O)c1ccc2cc1NCCCCNc1nc(ncc1I)N2` (racemic) [Example 4, (RS)—N-(Ethoxycarbonyl)-S-[1^5-iodo-2,4,9-triaza-1(2,4)-pyrimidina-3(1,3)-benzenacyclononaphan-3^4-yl]-S-methylsulphoximide], it took 9 nM to reach half-maximal inhibition against KDR (IC50).
